# Measurements from publication PMC7072606, “Discrimination of Naturally-Occurring 2-Arylbenzofurans as Cyclooxygenase-2 Inhibitors: Insights into the Binding Mode and Enzymatic Inhibitory Activity” (Biomolecules, 2020).
# Target: T1, bovine COX-2 (Bos taurus, UniProt O62698)
# T1 sequence (O62698 18-604): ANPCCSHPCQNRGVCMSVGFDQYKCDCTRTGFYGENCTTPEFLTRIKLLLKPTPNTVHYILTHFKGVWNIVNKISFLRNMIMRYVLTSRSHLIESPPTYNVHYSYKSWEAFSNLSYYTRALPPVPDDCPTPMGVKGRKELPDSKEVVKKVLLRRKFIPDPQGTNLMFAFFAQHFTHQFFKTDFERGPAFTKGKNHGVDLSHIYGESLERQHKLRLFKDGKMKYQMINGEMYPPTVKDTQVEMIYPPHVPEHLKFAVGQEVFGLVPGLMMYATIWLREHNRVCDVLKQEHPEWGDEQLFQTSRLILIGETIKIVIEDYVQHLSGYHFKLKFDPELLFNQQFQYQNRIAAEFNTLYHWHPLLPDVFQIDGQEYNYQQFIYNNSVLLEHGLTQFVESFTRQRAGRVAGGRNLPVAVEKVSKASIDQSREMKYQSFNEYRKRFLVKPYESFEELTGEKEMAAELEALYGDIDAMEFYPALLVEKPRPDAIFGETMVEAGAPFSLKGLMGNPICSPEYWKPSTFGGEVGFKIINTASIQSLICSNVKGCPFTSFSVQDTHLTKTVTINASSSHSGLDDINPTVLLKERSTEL
# Experiment: COX-2 inhibition assay, enzyme immunoassay (EIA) kit
# Format: biochemical
# Conditions: in-vitro
# Experimental: The ability of selected compounds to inhibit bovine COX-2 was determined using an enzyme immunoassay (EIA) kit (Cayman Chemical Company, Ann Arbor, MI, USA), according to the reported method. The activity was expressed as half-maximal inhibitory concentrations, IC50 (in μM), obtained after non-linear regression, using the program GraphPad Prism version 5.00 (GraphPad Software, San Diego, CA, USA).
substance,measurement,value
salvianolic acid B [Compound 51],IC50,10.5 µM
